Results as given in US8030306B2, “Azabicyclic heterocycles as cannabinoid receptor modulators” (Bristol-Myers Squibb Company, priority 2006, dated 2011).
Values after ≈ are worked out from the molar mass of the structure shown.

Tests used:
recombinant human CB-1 = molecular target: T1, recombinant human CB-1 (Homo sapiens, UniProt P21554); experiment: Cannabinoid receptor binding assay (radioligand 3H-CP-55,940, CHO-CB-1 membranes); conditions: membranes of CHO cells over-expressing recombinant human CB-1, 2 nM 3H-CP-55,940, read-out: CB1 Ki
T1 construct: expressed in transfected cells; host or cells: CHO cells (CHO-CB-1), membrane preparation
T1 sequence (P21554 whole entry): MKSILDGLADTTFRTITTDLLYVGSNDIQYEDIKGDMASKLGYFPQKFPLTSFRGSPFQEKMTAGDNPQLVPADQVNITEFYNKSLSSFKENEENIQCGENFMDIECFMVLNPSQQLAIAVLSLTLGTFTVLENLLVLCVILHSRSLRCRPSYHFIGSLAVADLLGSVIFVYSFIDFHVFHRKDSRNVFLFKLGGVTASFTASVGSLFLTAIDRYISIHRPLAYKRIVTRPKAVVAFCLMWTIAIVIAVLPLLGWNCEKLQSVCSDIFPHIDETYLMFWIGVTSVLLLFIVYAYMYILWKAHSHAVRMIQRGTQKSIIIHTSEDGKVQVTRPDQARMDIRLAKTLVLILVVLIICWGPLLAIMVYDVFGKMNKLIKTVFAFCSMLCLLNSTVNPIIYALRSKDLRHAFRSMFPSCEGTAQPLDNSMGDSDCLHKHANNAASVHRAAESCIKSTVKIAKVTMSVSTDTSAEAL
Description: Radioligand binding studies were conducted in membranes prepared from Chinese Hamster Ovary (CHO) cells that over-express recombinant human CB-1 (CHO-CB-1 cells). Total assay volume for the binding studies was 100 μl. 5 μg of membranes were brought up to a final volume of 95 μl with Binding Buffer (25 mM HEPES, 150 mM NaCl, 2.5 mM CaCl2, 1 mM MgCl2, 0.25% BSA). The diluted membranes were preincubated with a compound or DMSO vehicle. The binding reaction was initiated by the addition of 2 nM final ^3H-CP-55,940 (120 Ci/mmol) and proceeded for 2.5 hours at room temperature. The binding reaction was terminated by transferring the reaction to GF/B 96 well plates (presoaked with 0.3% polyethylenimine) using a Packard Cell Harvester. The filter was washed with 0.25 ×PBS, 30 μl MicroScint was added per well, and the bound radiolabel was quantitated by scintillation counting on a Packard TopCount Scintillation Counter. The CB-2 radioligand binding assay was conducted identically except that the membranes from CHO-CB-2 cells were used.

[1] = Canine half-life assay (IV pharmacokinetics); assay type: in vivo; conditions: dog, plasma; male beagle dogs, IV 1 mg/kg; unit not given in table (text gives hrs)
Description: Functional canine half-life of test compounds was determined by methods […] to one of ordinary skill in the art. For example, pharmacokinetic parameters were determined in male beagle dogs (weight of 12.4, 13.2 and 8.9 kg). The intravenous (“IV”) solution dose studies were conducted in a crossover design (n=3). Animals with vascular access ports, chronically implanted in the femoral vein, were used for administration of the dose. The animals had free access to water and were conscious and unrestrained throughout the study. In the IV study, drug was infused at a dose of 1 mg/kg (1 mL/kg) in 50% PEG-400, 10% ethanol and 40% water over 10 minutes. Serial blood samples were collected from the jugular vein at 0.167, 0.25, 0.5, 0.75, 1, 2, 4, 6, 8, 24, 48 and 72 hours post-dose. Plasma was prepared immediately, and the samples were frozen on dry ice and stored at −20° C. until analysis. All samples were analyzed for the concentration of the parent drug by LC-MS/MS analysis.
The pharmacokinetic parameters were calculated by Non-Compartmental Analysis using the […]™ software program (version 4.2, InnaPhase Co., Philadelphia, Pa.). The AUCO-Tlast and AUCtot values were calculated using the trapezoidal summations. The elimination half-life (T1/2) was calculated from the terminal, linear portion of the plasma concentration-time data curve. The total clearance (CLplasma), mean residence time (MRT), and the steady state volume of distribution (Vss) were also calculated after intravenous administration. The total blood clearance (CLblood) was calculated by using the total plasma clearance and the blood to plasma concentration ratio. All results are expressed as mean±SD, unless specified otherwise.

[2] = Thermodynamic equilibrium aqueous solubility assay; assay type: physicochemical; conditions: thermodynamic from solid, room temperature, default 50 mM pH 6.5 potassium phosphate buffer
Description: • Assay Name: Thermodynamic Equilibrium Aqueous Solubility Assay • Description: The purpose of this assay is to provide a medium throughput estimation of the thermodynamic equilibrium aqueous solubility of compounds at room temperature. Solvent system default is 50 mM pH 6.5 potassium phosphate buffer. Detailed Protocol:
Standards Preparation—The calibration standard is prepared by accurately weighing 0.5-0.7 mg of sample in 5 ml of methanol. […] A serial dilution is performed on the standard solution.
The final saturated solution is prepared by adding 1.0 ml of the appropriate aqueous solvent to the remaining portion of material (1 dram submission vial). The solution is sonicated and vortexed for ˜30 seconds. The sample solution is placed on an orbiter that continually agitates the sample solutions for 15-24 hours at room temperature. The final saturated solution is then transferred to a 1.5 ml eppendorf tube and centrifuged for ˜2 min. at 10000 rpms. The supernatant from the saturated solution is transferred to a glass HPLC-suitable vial without filtering since the […] is insufficient to saturate the syringe filter. This sample preparation procedure nullifies the effects of non-specific binding to the filtering apparatus.
The standards and sample are analyzed by HPLC using either UV/Vis diode array or variable wavelength detection. Typical quantitation wavelengths are 210 or 254 nm; detection wavelength can be individually customized to optimize sensitivity. In addition to UV detection, mass spectrometry detection is recommended if available in order to confirm the identity of the HPLC-UV peak of interest.
Dilutions of aqueous test solutions are performed if HPLC-UV peak is beyond the linear portion of the standard calibration curve. Typical dilutions include 100 ul/900 ul (×10) or 500 ul/500 ul (2 ×), as required.

[3] = 16 week trial period, Phase IIb; cited from earlier work

| SMILES | Ki (recombinant human CB-1) [nM] | half-life [1] [h] | solubility [2] [µg/mL] | body weight in human subjects [3] |
| --- | --- | --- | --- | --- |
| COCc1nnc2c(-c3ccc(Cl)cc3)c(-c3ccc(C#N)cc3)c(=O)n(Cc3ccc(C(F)(F)F)nc3C)n12 [Example 2, 4-(8-(4-chlorophenyl)-3-(methoxymethyl)-5-((2-methyl-6-(trifluoromethyl)pyridin-3-yl)methyl)-6-oxo-5,6-dihydro-[1,2,4]triazolo[4,3-b]pyridazin-7-yl)benzonitrile] | 5 | 23 | 6 (≈ 10.6 µM) | – |
| Cc1nc(C(F)(F)F)ccc1Cn1c(=O)c(-c2ccc(C#N)cc2)c(-c2ccc(Cl)cc2)c2nnc(CO)n21 [Example 3, 4-(8-(4-chlorophenyl)-3-(hydroxymethyl)-5-((2-methyl-6-(trifluoromethyl)pyridin-3-yl)methyl)-6-oxo-5,6-dihydro-[1,2,4]triazolo[4,3-b]pyridazin-7-yl)benzonitrile] | 3 | 20 | 15 (≈ 27.2 µM) | – |
| Cc1nc(C(F)(F)F)ccc1Cn1c(=O)c(-c2ccc(C#N)cc2)c(-c2ccc(Cl)cc2)c2nnc([C@@H](C)O)n21 [Example 4, (R)-4-(8-(4-chlorophenyl)-3-(1-hydroxyethyl)-5-((2-methyl-6-(trifluoromethyl)pyridin-3-yl)methyl)-6-oxo-5,6-dihydro-[1,2,4]triazolo[4,3-b]pyridazin-7-yl)benzonitrile] | 15 | – | 10 (≈ 17.7 µM) | – |
| Cc1nc(C(F)(F)F)ccc1Cn1c(=O)c(-c2ccc(C#N)cc2)c(-c2ccc(Cl)cc2)c2nnc([C@H](C)O)n21 [Example 5, (S)-4-(8-(4-chlorophenyl)-3-(1-hydroxyethyl)-5-((2-methyl-6-(trifluoromethyl)pyridin-3-yl)methyl)-6-oxo-5,6-dihydro-[1,2,4]triazolo[4,3-b]pyridazin-7-yl)benzonitrile] | 10 | – | – | – |
| Cc1nc(C(F)(F)F)ccc1Cn1c(=O)c(-c2ccc(C#N)cc2)c(-c2ccc(Cl)cc2)c2nnc(CN(C)C)n21 [Example 10, 4-(8-(4-chlorophenyl)-3-((dimethylamino)methyl)-5-((2-methyl-6-(trifluoromethyl)pyridin-3-yl)methyl)-6-oxo-5,6-dihydro-[1,2,4]triazolo[4,3-b]pyridazin-7-yl)benzonitrile] | 13 | – | 2 (≈ 3.46 µM) | – |
| Cc1nc(C(F)(F)F)ccc1Cn1c(=O)c(-c2ccc(C#N)cc2)c(-c2ccc(Cl)cc2)c2nnc(CN)n21 [Example 11, 4-(3-(aminomethyl)-8-(4-chlorophenyl)-5-((2-methyl-6-(trifluoromethyl)pyridin-3-yl)methyl)-6-oxo-5,6-dihydro-[1,2,4]triazolo[4,3-b]pyridazin-7-yl)benzonitrile] | 11 | – | – | – |
| Cc1nc(C(F)(F)F)ccc1Cn1c(=O)c(-c2ccccc2)c(-c2ccc(Cl)cc2)c2nnc(CN)n21 [Example 12] | 8 | – | 101 (≈ 192 µM) | – |
| Cc1nc(C(F)(F)F)ccc1Cn1c(=O)c(-c2ccc(Cl)cc2)c(-c2ccc(Cl)cc2)c2nnc(CN)n21 [Example 15] | 12 | – | 16 (≈ 28.6 µM) | – |
| Cc1c(C(=O)NN2CCCCC2)nn(-c2ccc(Cl)cc2Cl)c1-c1ccc(Cl)cc1 [SR-141716] | – | – | – | dose-dependently reduced body weight |

The next lines start with results.

| Ki (recombinant human CB-1) [nM] | half-life [1] [h] | solubility [2] [µg/mL] | SMILES | body weight in human subjects [3] |
| --- | --- | --- | --- | --- |
| 3 | – | 20 (≈ 37.1 µM) | Cc1ccc(-c2c(-c3ccc(Cl)cc3)c3nnc(CN)n3n(Cc3ccc(C(F)(F)F)nc3C)c2=O)cc1 [Example 13] | – |
| 10 | – | 25 (≈ 46.4 µM) | CNCc1nnc2c(-c3ccc(Cl)cc3)c(-c3ccccc3)c(=O)n(Cc3ccc(C(F)(F)F)nc3C)n12 [Example 14] | – |
| 6 | – | 38 (≈ 68.7 µM) | Cc1ccc(-c2c(-c3ccc(Cl)cc3)c3nnc([C@H](C)N)n3n(Cc3ccc(C(F)(F)F)nc3C)c2=O)cc1 [Example 16] | – |
| 20 | – | 31 (≈ 57.5 µM) | Cc1ccc(-c2c(-c3ccc(Cl)cc3)c(=O)n(Cc3ccc(C(F)(F)F)nc3C)n3c(CN)nnc23)cc1 [Example 17] | – |
| 14 | – | 7 (≈ 12.6 µM) | Cc1ccc(-c2c(-c3ccc(Cl)cc3)c(=O)n(Cc3ccc(C(F)(F)F)nc3C)n3c([C@H](C)O)nnc23)cc1 [Example 18, (S)-7-(4-chlorophenyl)-3-(1-hydroxyethyl)-5-((2-methyl-6-(trifluoromethyl)pyridin-3-yl)methyl)-8-p-tolyl-[1,2,4]triazolo[4,3-b]pyridazin-6(5H)-one] | – |
| 5 | – | 7 (≈ 12.6 µM) | Cc1ccc(-c2c(-c3ccc(Cl)cc3)c3nnc([C@H](C)O)n3n(Cc3ccc(C(F)(F)F)nc3C)c2=O)cc1 [Example 19, (S)-8-(4-chlorophenyl)-3-(1-hydroxyethyl)-5-((2-methyl-6-(trifluoromethyl)pyridin-3-yl)methyl)-7-p-tolyl-[1,2,4]triazolo[4,3-b]pyridazin-6(5H)-one] | – |
| 6 | – | 22 (≈ 40.7 µM) | Cc1nc(C(F)(F)F)ccc1Cn1c(=O)c(-c2ccccc2)c(-c2ccc(Cl)cc2)c2nnc([C@H](C)O)n21 [Example 20, (S)-8-(4-chlorophenyl)-3-(1-hydroxyethyl)-5-((2-methyl-6-(trifluoromethyl)pyridin-3-yl)methyl)-7-phenyl-[1,2,4]triazolo[4,3-b]pyridazin-6(5H)-one] | – |
| 27 | – | 31 (≈ 57.4 µM) | Cc1nc(C(F)(F)F)ccc1Cn1c(=O)c(-c2ccccc2)c(-c2ccc(Cl)cc2)c2nnc([C@@H](C)O)n21 [Example 21, (R)-8-(4-chlorophenyl)-3-(1-hydroxyethyl)-5-((2-methyl-6-(trifluoromethyl)pyridin-3-yl)methyl)-7-phenyl-[1,2,4]triazolo[4,3-b]pyridazin-6(5H)-one] | – |
| 3 | 39 | 4 (≈ 7.41 µM) | COCc1nnc2c(-c3ccc(Cl)cc3)c(-c3ccccc3)c(=O)n(Cc3ccc(C(F)(F)F)nc3C)n12 [Example 22, 8-(4-chlorophenyl)-3-(methoxymethyl)-5-((2-methyl-6-(trifluoromethyl)pyridin-3-yl)methyl)-7-phenyl-[1,2,4]triazolo[4,3-b]pyridazin-6(5H)-one] | – |
